Read-outs that look alike come from different tables or passages of the source. Marks after values point to notes of the source that are not given here.
Assays:
HAdV7a = assay: plaque reduction assay in A549 cells, HAdV7a; type: cell-based, Human adenovirus
Method: (§1) The in vitro antiviral testing was done using a standard plaque reduction assay with A549 human lung carcinoma cells as previously described. The EC50s were determined using a Fitted Line Plot Regression analysis with Minitab Version 21 software. The EC50 is the effective concentration that inhibits plaque formation by 50%. The HAdV types tested represent the most common adenovirus serotypes that cause ocular infections (HAdV8, HAdV19/64, HAdV37 (EKC); HAdV3, HAdV4, HAdV7a (follicular conjunctivitis)) and serotypes that cause conjunctivitis and can replicate in the rabbit ocular model (HAdV1, HAdV2, HAdV5).
(§2) For the in vitro antiviral testing, clinical adenovirus isolates of types HAdV1, HAdV2, HAdV3, HAdV4, HAdV5, HAdV7a, HAdV8, and HAdV19/64 were anonymously collected from patients presenting with typical adenoviral conjunctivitis at the Charles T. Campbell Ophthalmic Microbiology Laboratory at the UPMC Eye Center, University of Pittsburgh, Pittsburgh, PA, USA. The isolates were retrieved from a frozen −80 °C retrospective clinical collection that was de-identified and stored for diagnostic test validations. The types of isolates were determined using serum neutralization. Recently, HAdV19 has been reclassified as HAdV64 [41]; however, for the purpose of this study, it was designated as HAdV19/64. No clinical isolates of HAdV37 were identified, therefore the ATCC (American Type Culture Collection, Manassas, VA, USA) reference strain of HAdV37 was used. The clinical isolates along with the ATCC HAdV37 reference strain were grown in A549 cell (CCL-185, ATCC) monolayers and stocks were prepared, aliquoted, and frozen at –80 °C. The titers of the stock viruses were determined as described in Section 4.7. The same clinical isolate of HAdV5 used for the in vitro antiviral testing was also used for the in vivo antiviral evaluation in the Ad5/NZW rabbit ocular replication model.
(§3) A549 human lung carcinoma cells were grown and maintained in Eagle’s MEM supplemented with 10% fetal bovine serum (Sigma Cell Culture Reagents, St. Louis, MO, USA). The A549 cell line was used to prepare the adenovirus stocks and for the determination of viral titers in the Ad5/NZW rabbit ocular replication model and in the in vitro plaque reduction assays.
Plaque reduction assays were performed 2–4 times using 24-well multiplates containing A549 monolayers. One plate per virus isolate per drug was used. The 24-well multiplates were inoculated with approximately 100 plaque-forming units (PFU) of HAdV per well. After a three-hour adsorption period, the inocula were removed from all wells. One ml of overlay media with 0.5% methylcellulose containing 100, 10, 1.0, 0.1, 0.01, or 0.001 μg/mL of CPE-C or cidofovir was added to 3 wells each. To the remaining 6 wells, 1 mL of overlay media with 0.5% methylcellulose and without CPE-C or cidofovir was added. The plates were incubated at 37 °C in 5% CO2 until plaque formation was visible. At that time, the cells were fixed and stained with 0.5% gentian violet containing formalin. The plates were dried, and the number of plaques per well was counted using a dissecting microscope. […] The mean and standard deviation EC50 concentrations of 2–4 trials were then determined for each HAdV isolate. […]

[1] = tested on: nine adenovirus types that commonly infect the eye; assay: plaque reduction assay, whole panel of ocular HAdV types; type: cell-based, Human adenovirus; conditions: for range of mean EC50 concentrations across the HAdV serotypes tested: highest vs lowest mean EC50; for EC50: unidentified adenovirus
Method: as §1, §2, §3
Plaque reduction assays were performed 2–4 times using 24-well multiplates containing A549 monolayers. One plate per virus isolate per drug was used. The 24-well multiplates were inoculated with approximately 100 plaque-forming units (PFU) of HAdV per well. After a three-hour adsorption period, the inocula were removed from all wells. One ml of overlay media with 0.5% methylcellulose containing 100, 10, 1.0, 0.1, 0.01, or 0.001 μg/mL of CPE-C or cidofovir was added to 3 wells each. To the remaining 6 wells, 1 mL of overlay media with 0.5% methylcellulose and without CPE-C or cidofovir was added. The plates were incubated at 37 °C in 5% CO2 until plaque formation was visible. At that time, the cells were fixed and stained with 0.5% gentian violet containing formalin. The plates were dried, and the number of plaques per well was counted using a dissecting microscope. The CPE-C and cidofovir EC50 concentrations (concentrations that inhibits plaque formation by 50%) for each virus isolate were determined using a Fitted Line Plot Regression analysis (Minitab Version 21, State College, PA) of the average number of plaques versus drug concentration. The mean and standard deviation EC50 concentrations of 2–4 trials were then determined for each HAdV isolate. The EC50 concentrations in μg/mL were then converted to μM using the GraphPad online Molarity Calculator (https://www.graphpad.com/quickcalcs/Molarityform.cfm (accessed on 12 June 2023)).

HAdV5 = assay: Ad5/NZW rabbit ocular replication model; type: in vivo, New Zealand white (NZW) rabbits; conditions: for number of HAdV5-positive cultures per group on days 1, 3, 4, 5, 7 and 14 compared with saline control: Fisher Exact Test, p < 0.05; for reduction of the duration of shedding: vs saline control; for Duration of HAdV5 Shedding, Mean ± Sd: n = 20; for Mean ± Sd Combined HAdV5 Ocular Titers, Early Phase (Days 1–5) / Mean ± Sd Combined HAdV5 Ocular Titers, Late Phase (Days 7–14): n = 80
Method: Using the Ad5/NZW rabbit ocular replication model, the current study was performed in duplicate trials using a total of 40 rabbits (20 per trial). Following the systemic and topical anesthesia described above, the rabbits were topically inoculated with 50 µL (1.5 × 10^6 PFU/eye) of HAdV5 in both eyes after corneal epithelial scarification (12 cross-hatched strokes of a #25 sterile needle). Twenty-four hours later, the rabbits were randomly assigned to one of four topical treatment groups (n = 10): (1) 3% CPE-C 4X/day, (2) 3% CPE-C 2X/day, (3) 0.5% Cidofovir 2X/day, and (4) Saline Control 4X/day. Rabbits were treated topically in both eyes according to the above treatment regimens for 7 days. The CPE-C ointments were administered as described above in the ocular toxicity study. Cidofovir and saline were administered as 37 µL aqueous drops. Following topical anesthesia with 0.5% proparacaine, ocular swabbing to recover HAdV5 from the tear film and corneal and conjunctival surfaces was performed on days 0, 1, 3, 4, 5, 7, 9, 11, and 14 after inoculation. The cultures were taken at least 1 h after the final dose of antiviral on the days the antivirals were administered. The swabs from each eye were placed individually into tubes containing 1 mL of tissue culture media and were frozen at −80 °C pending viral plaque assay.
The samples to be assayed were diluted 1:10 for up to 6 dilutions. One-tenth of a ml of both the undiluted sample and the dilutions was inoculated onto duplicate wells of 24-well multiplates containing A549 monolayers. The virus was adsorbed for 3 h at 37 °C in a 5% CO2-water vapor atmosphere. The plates were rocked intermittently to keep the cells from drying. Following adsorption, 1 mL of tissue culture media containing 0.5% methylcellulose was added to each well, and the plates were incubated at 37 °C in a 5% CO2-water vapor atmosphere. After the appropriate incubation period, the cells were fixed and stained with 0.5% gentian violet in formalin. The plates were dried, and the number of plaques per well was counted under a dissecting microscope. The viral titers were then calculated and expressed as plaque-forming units per milliliter (PFU/mL).
The in vitro EC50 data was analyzed with Two-Sample T-Tests using Minitab (Minitab Inc., State College, PA, USA) statistical software Version 21. Following the completion of both trials in the in vivo antiviral efficacy study, the data from each trial were analyzed statistically using Minitab and GraphPad online (https://www.graphpad.com/quickcalcs/contingency1/ (accessed on 16 February 2023)). […] Significance was established at the p ≤ 0.05 confidence level.

[2] = Human adenovirus sp., A549, HAdV7a clinical isolate, A549 cells, mean ± SD of 2–4 trials
[3] = Human adenovirus sp., A549, HAdV7a, converted from μg/mL
[4] = 3% ointment topical 2X/Day for 7 days
[5] = 3% ointment topical 4X/Day for 7 days
[6] = 0.5% drops topical 2X/Day for 7 days

## Nc1ccn([C@@H]2C=C(CO)[C@@H](O)[C@H]2O)c(=O)n1 [CPE-C, Cyclopentenylcytosine]
HAdV7a; [2]
  EC50: 0.055 ± 0.026 µg/mL
HAdV7a; [3]
  EC50: 0.194 ± 0.057 µM
[1]
  range of mean EC50 concentrations across the HAdV serotypes tested: 2 fold
[1]; majority of the HAdV types
  EC50 concentrations lower for CPE-C compared to cidofovir: approximately 100 fold
[1]; nine adenovirus types that commonly infect the eye
  EC50s across the panel of HAdV types: < 0.06 µg/mL
[1]; read-out: EC50 concentrations across the panel of HAdV types, panel of HAdV types that commonly infect the eye
  EC50: < 0.25 µM
[1]; read-out: EC50s across the panel of HAdV types, nine adenovirus types that commonly infect the eye
  EC50: 0.03 to 0.059 µg/mL
HAdV5; 3% 2X/day
  number of HAdV5-positive cultures per group on days 1, 3, 4, 5, 7 and 14 compared with saline control: significantly reduced
HAdV5; 3% 4X/day
  number of HAdV5-positive cultures per group on days 1, 3, 4, 5, 7 and 14 compared with saline control: significantly reduced
HAdV5; 3% administered 2X per day for 7 days
  reduction of the duration of shedding: 5.6 days
HAdV5; 3% administered 4X per day for 7 days
  reduction of the duration of shedding: 6.8 days
HAdV5; [4]
  HAdV5-Positive Eye Cultures/Total, Early Phase (Days 1–5): 29/80
  HAdV5-Positive Eye Cultures/Total, Early Phase (Days 1–5), percent: 36%
  HAdV5-Positive Eye Cultures/Total, Late Phase (Days 7–14): 2/80
  HAdV5-Positive Eye Cultures/Total, Late Phase (Days 7–14), percent: 3%
  HAdV5-Positive Eye Cultures/Total, Overall (Days 1–14): 31/160
  HAdV5-Positive Eye Cultures/Total, Overall (Days 1–14), percent: 19%
  Duration of HAdV5 Shedding, Mean ± Sd: 2.5 ± 2.3 ^d Days
  Mean ± Sd Combined HAdV5 Ocular Titers, Early Phase (Days 1–5): 3.5 ± 18.1 × 10^1 b Log10 PFU/mL
  Mean ± Sd Combined HAdV5 Ocular Titers, Late Phase (Days 7–14): 3.6 ± 25.2 × 10^0 c Log10 PFU/mL
HAdV5; [5]
  HAdV5-Positive Eye Cultures/Total, Late Phase (Days 7–14): 6/80
  HAdV5-Positive Eye Cultures/Total, Late Phase (Days 7–14), percent: 8%
  HAdV5-Positive Eye Cultures/Total, Overall (Days 1–14): 24/160
  HAdV5-Positive Eye Cultures/Total, Overall (Days 1–14), percent: 15%
  Duration of HAdV5 Shedding, Mean ± Sd: 1.3 ± 1.6 ^d Days
  Mean ± Sd Combined HAdV5 Ocular Titers, Early Phase (Days 1–5): 1.6 ± 4.8 × 10^1 b Log10 PFU/mL
  Mean ± Sd Combined HAdV5 Ocular Titers, Late Phase (Days 7–14): 0.9 ± 4.4 × 10^0 c Log10 PFU/mL

## Nc1ccn(C[C@@H](CO)OCP(=O)(O)O)c(=O)n1 [Cidofovir, cidofovir, reference compound]
HAdV7a; HAdV7a, converted from μg/mL
  EC50: 19.2 ± 0.491 µM
HAdV7a; [2]
  EC50: 5.37 ± 0.137 µg/mL
HAdV7a; [3]
  EC50: 19.2 ± 0.491 µM
[1]
  range of mean EC50 concentrations across the HAdV serotypes tested: 12.6 fold
[1]; read-out: EC50 concentrations for a majority of the HAdV serotypes, majority of the HAdV serotypes
  EC50: ~5 µg/mL
HAdV5; 0.5% 2X/day
  number of HAdV5-positive cultures per group on days 1, 3, 4, 5, 7 and 14 compared with saline control: significantly reduced
HAdV5; 0.5% 2X/day, p = 0.0197, FET
  HAdV5-positive cultures on day 9 compared with saline control: significantly fewer
HAdV5; [6]
  HAdV5-Positive Eye Cultures/Total, Early Phase (Days 1–5): 26/80
  HAdV5-Positive Eye Cultures/Total, Early Phase (Days 1–5), percent: 33%
  HAdV5-Positive Eye Cultures/Total, Late Phase (Days 7–14): 1/80
  HAdV5-Positive Eye Cultures/Total, Late Phase (Days 7–14), percent: 1%
  HAdV5-Positive Eye Cultures/Total, Overall (Days 1–14): 27/160
  HAdV5-Positive Eye Cultures/Total, Overall (Days 1–14), percent: 17%
  Duration of HAdV5 Shedding, Mean ± Sd: 2.0 ± 1.8 ^d Days
  Mean ± Sd Combined HAdV5 Ocular Titers, Early Phase (Days 1–5): 6.7 ± 12.7 × 10^0 b Log10 PFU/mL
  Mean ± Sd Combined HAdV5 Ocular Titers, Late Phase (Days 7–14): 0.3 ± 2.2 × 10^0 c Log10 PFU/mL

— PMC10343472, “Cyclopentenylcytosine (CPE-C): In Vitro and In Vivo Evaluation as an Antiviral against Adenoviral Ocular Infections” (Molecules, 2023)
